Measured values published in US4786639A, “Method for the treatment of reversible airways obstruction and asthma” (Beecham Group p.l.c., priority 1984, dated 1988).
≈ marks a conversion by molar mass, not a printed value. Read-outs that look alike come from different tables or passages of the source.

Key:
[1] = test system: Rat isolated colon; test: Rat isolated colon: inhibition of spontaneous contractions; design: species or system rat (male Wister); settings: 10 min, cumulative dosing at 10 min intervals, graphically determined, read-out: ID50 (concentration reducing amplitude of spontaneous contractions by 50%)
Method: Rat isolated colon. Male Wister rats (Charles River U.K.) were killed by a blow on the head and a 2 cm segment of proximal colon excised. After gently washing free any luminal contents the tissue was suspended longitudinally in a 10 ml organ bath containing Krebs solution of the following composition: NaCl 118.1 mM, KH2 PO4 1.18 mM, NaHCO3 25 mM, KCl 4.69 mM, MgSO4 1.64 mM, CaCl2 2.52 mM, Glucose 11.1 mM. This solution was maintained at 37° C. and constantly bubbled with 95% O2 : 5% CO2. Isometric contractions were recorded from the tissue with an initial tension of 1 g being applied.
The inhibitory effects of compounds 1+2 were assessed from the reduction in amplitude of the spontaneous contractions of the colon. Cumulative dose-response curves were constructed with the compounds being applied to the bath at intervals of 10 mins. ID50 (concentration of drug reducing amplitude of contractions by 50%) was graphically determined from the dose-response curve.
Rat isolated colon : effect of compounds 1 and 2 on spontaneous contractions

[2] = test system: Rat isolated portal vein; test: Rat isolated portal vein: inhibition of spontaneous contractions and of contractions due to added calcium; design: species or system rat (male Sprague Dawley); settings: for IC50: Rattus norvegicus, 0.25 h, 15 min contact time, 6-9 tissues, 95% fiducial limits in next line
Method: (1) Rat isolated portal vein. Male Sprague Dawley rats (250-350 g) were killed by cervical dislocation. Portal veins (2-3cm in length) were set up under 0.8-1 g tension in a 10 ml organ bath containing Krebs-Henseleit solution, at 37° C., of the following composition (mM): NaCl 118, NaHCO3 25, glucose 5, KH2 PO4 1.18, KCl 4.69, MgSO4 0.59, CaCl2.H2 O 1.87. The tissue was aerated with a 95% oxygen and 5% carbon dioxide mixture. Isometric tension was recorded using a Devices strain gauge and recorder. Each preparation was allowed 1h to equilibrate before the addition of test compound. The ability of a compound to inhibit the contractions due to added calcium (3 mM CaCl2) was determined in tissues bathed in Krebs-Henseleit solution containing 0.05 mM CaCl2 (in order to reduce spontaneous contractions). Then percentage inhibition (mean ±s.e.m.; 6-9 tissues) of the amplitude of the spontaneous contractions, and contractions due to added calcium, was determined after 15 min contact time with test compound.
(1) Rat Isolated Portal Vein: effect of compound 1 on spontaneous contractions and those due to added calcium.
IC50 is concentration of compound reducing contractions by 50%; parenthesis indicate 95% fiducial limits.

[3] = test system: Rabbit isolated mesenteric artery; test: Rabbit isolated mesenteric artery: relaxation of contractions due to KCl; design: species or system rabbit (male New Zealand White); settings: for IC50: Oryctolagus cuniculus, 4-9 tissues
Method: (2) Rabbit isolated mesenteric artery. Mesenteric arteries (3 mm rings) were removed from male New Zealand White rabbits and mounted, at a resting tension of 1.5-2.0 g, in a 10 ml organ bath containing a Ringer solution, at 37° C., of the following composition (mM): NaCl 120.8; KCl 5.9; CaCl2 2.5; MgCl2 1.2; HEPES 5.8; glucose 11.5. The bathing solution was bubbled with a 95% oxygen and 5% carbon dioxide mixture. Each preparation was allowed 1-11/2 h to equilibrate before the addition of either 30 or 90 mM KCl to contract the tissue. The ability of test compound to relax the sustained contraction due to KCl was determined by assessing the % reduction (mean ±s.e.m.; 4-9 tissues) produced by varying concentrations of test compound.
(2) Rabbit Isolated Mesenteric Artery: effect of compound 1 on contractions due to 30 and 90 mM KCl.
IC50 is the concentration of compound 1 halving the contraction due to KCl; parenthesis indicate 95% fiducial limits.

[4] = test system: conscious guinea-pig; test: Guinea pig asphyxic collapse model in vivo (histamine aerosol); design: species or system guinea pig (female Dunkin-Hartley); settings: 5 mg/kg p.o., 30 min pretreatment, control 90 ± 10
Description: This model is based on the method described by Herxheimer (Br.J.Pharm.50, 314 (1974)]. Conscious female guinea pigs (Dunkin-Hartley strain, 500-700 g body weight) were placed individually into a Perspex chamber of approximately 8 litres capacity, and the animals were challenged with an histamine aerosol. The standard histamine aerosol was generated using a Monaghan 675 ultrasonic nebulizer (power setting 7) from a 5×10^-5 m solution of histamine acid phosphate in distilled water. After obtaining satisfactory aerosol generation, the aerosol was passed into the chamber for 10 seconds and the time was recorded from introduction of the aerosol until the guinea pig collapsed (termed asphyxic collapse). The animal was rapidly removed and allowed to recover. In this way, the mean time to asphyxic collapse for a group of guinea pigs was determined.
Compounds were administered orally to groups of animals and the degree of protection against histamine-induced asphyxic collapse was determined by the percentage increase in mean time to asphyxic collapse of a compound-treated group to asphyxic collapse for control groups was around 80-100 seconds. […]
The significance of any increase in the mean asphyxic collapse time of a compound-treated group of animals over that of a vehicle-treated control group was determined using students "t" test. […]

[5] = test system: potassium depolarised rat uterus; test: Relaxation of potassium depolarised rat uterus; design: species or system rat (female Sprague Dawley); settings: 7 preparations, relative to full relaxation with isoprenaline, read-out: % maximum relaxation
Method: Relaxation of Potassium Depolarised Rat Uterus
Female Sprague Dawley rats (120-160 g) were sacrificed and the uterine horns removed. Each horn was cut longitudinally to give a sheet of muscle which was further subdivided to give two preparations (i.e. 4 from each animal). Each tissue was mounted in a 10 ml organ bath containing normal Krebs buffer at 32° C. and gassed with 95% O2 -5% CO2. During an equilibration period of approximately 45 min the tissues were repeatedly stretched and washed to maintain a resting tension of 0.2 g. An increase in tension was induced by exchanging the Krebs buffer for one in which the sodium ions were replaced by the equivalent amount of potassium ions.
This caused the tissues to contract followed by a slow relaxation which equilibrated at a level above the initial resting level. A cumulative concentration effect curve to compound 1 was then carried out until the response to the final bath concentration (10^-4 M) had stabilised. Incremental concentrations of isoprenaline were then added until the tissues had fully relaxed. Results are expressed as a percentage of this maximum relaxation.
7 preparations were used.

CC1(C)Oc2ccc(Cl)cc2[C@@H](N2CCCC2=O)[C@@H]1O (relative stereo) [Compound 2, 6-chloro-3,4-dihydro-2,2-dimethyl-trans-4-(2-oxo-1-pyrrolidinyl)-2H-benzo[b]pyran-3-ol]
IC50 [1]: 1.7 µg/mL (≈ 5.75 µM)

CC1(C)Oc2ccc(C#N)cc2[C@@H](N2CCCC2=O)[C@@H]1O (relative stereo) [Compound 1, 6-cyano-3,4-dihydro-2,2-dimethyl-trans-4-(2-oxo-1-pyrrolidinyl)-2H-benzo[b]pyran-3-ol]
IC50 ([2]; contractions due to added calcium (3 mM CaCl2), read-out: IC50 Ca^2+ (3 mM) contractions): 150 nM | IC50 ([2]; spontaneous contractions, read-out: IC50 Spontaneous contractions): 120 nM | relative potency, spontaneous contractions vs those due to added calcium ([2]; spontaneous contractions and those due to added calcium): equipotent | IC50 ([3]; 30 mM KCl, 95% fiducial limits in next line, read-out: IC50 30 mM KCl contraction): 510 nM | IC50 ([3]; 90 mM KCl, read-out: IC50 90 mM KCl contraction): > 10000 nM | effect against a high concentration of KCl ([3]; high concentration of KCl): effectiveness of compound 1 against a high concentration of KCl | antagonism of contractions due to potassium ([3]; partially (low KCl) vs fully (high KCl) depolarising concentration): antagonises the contractions due to a partially, but not a fully, depolarising concentration of potassium | IC50 [1]: 0.12 µg/mL (≈ 0.419 µM) | Mean collapse time ([4]; N=5, *p < 0.05): 154 ± 26 s | activation at 100 µM ([5]; 1 × 10^-4 M): 61 ± 6% | activation at 10 µM ([5]; 1 × 10^-5 M): 18 ± 3% | activation at 30 µM ([5]; 3 × 10^-5 M): 31 ± 3% | activation at 3 µM ([5]; 3 × 10^-6 M): 6 ± 2%

CCN(C(C)=O)[C@@H]1c2cc(C#N)ccc2OC(C)(C)[C@H]1O (relative stereo) [Compound 4, trans-4-(N-acetyl)-ethylamino-6-cyano-3,4-dihydro-2,2-dimethyl-2H-benzo[b]pyran-3-ol]
Mean collapse time ([4]; N=4, **p < 0.01): 176 ± 25 s
